Reference: patent US20220259593A1, “CONTROL OF MAMMALIAN GENE DOSAGE USING CRISPR” (The Regents of the University of California, priority 2019, published 2022)

Tested on: K562 CRISPRi cells
Assay: Perturb-seq pooled growth measurement (sgRNA counts, growth phenotype γ, relative activity)
Type: cell-based, human
Conditions: sequencing read counts; for Perturb-seq pooled growth sgRNA counts, d5: 5 days of growth (day seven after transduction); for Perturb-seq pooled growth sgRNA counts, d10: 10 days of growth (day twelve after transduction); for Perturb-seq pooled growth sgRNA counts, T0: T0 = day two after transduction
How it was run: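 CRISPRi K562 cells from the Perturb-seq transduced pool; 500,000-cell samples taken days two, seven and twelve post-transduction. sgRNA amplicons from genomic DNA sequenced; growth phenotypes from normalized sgRNA abundances at days seven and twelve versus day two. Relative activity assigned from day seven (five days' growth).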

| Substance | Perturb-seq pooled growth sgRNA counts, d5 | Perturb-seq pooled growth sgRNA counts, d10 | Perturb-seq pooled growth sgRNA counts, T0 |
| --- | --- | --- | --- |
| RPL9_+_39460483.23-P1P2_01: sgRNA targeting RPL9, GGATGATTCTGTGCTCGTGG, SEQ ID NO: 51 (listed as DNA, chemistry not fully specified) | 1108 | 1238 | 4886 |
| RPL9_+_39460483.23-P1P2_04: sgRNA targeting RPL9, GGATGTTTCAGTGCTCGTGG, SEQ ID NO: 53 (listed as DNA, chemistry not fully specified) | 3975 | 4118 | 5237 |
| RPL9_+_39460483.23-P1P2_05: sgRNA targeting RPL9, GGATGTTTCGGTGCTCGTGG, SEQ ID NO: 52 (listed as DNA, chemistry not fully specified) | 2217 | 2355 | 4950 |
| RPL9_+_39460483.23-P1P2_07: sgRNA targeting RPL9, GGATGTTTCTGCGCTCGTGG, SEQ ID NO: 54 (listed as DNA, chemistry not fully specified) | 7867 | 9339 | 7336 |
| RPS14_+_149829238.23-P1P2_00: sgRNA targeting RPS14, GAGGCCCGGGCGCGACAATC, SEQ ID NO: 45 (listed as DNA, chemistry not fully specified) | 3190 | 2984 | 11846 |
| RPS14_+_149829238.23-P1P2_01: sgRNA targeting RPS14, GAGACCCGGGCGCGACAATC, SEQ ID NO: 46 (listed as DNA, chemistry not fully specified) | 1474 | 1385 | 4954 |
| RPS14_+_149829238.23-P1P2_02: sgRNA targeting RPS14, GAGGCCCTGGCGCGACAATC, SEQ ID NO: 47 (listed as DNA, chemistry not fully specified) | 5497 | 5538 | 11519 |
| RPS14_+_149829238.23-P1P2_04: sgRNA targeting RPS14, GAGGCCCGCGCGCGACAATC, SEQ ID NO: 48 (listed as DNA, chemistry not fully specified) | 9641 | 12547 | 9244 |
| RPS14_+_149829238.23-P1P2_08: sgRNA targeting RPS14, GAGGCCCGGGCTCGACAATC, SEQ ID NO: 50 (listed as DNA, chemistry not fully specified) | 11681 | 17976 | 4488 |
| RPS14_+_149829238.23-P1P2_13: sgRNA targeting RPS14, GAGGCCCGGGCGCGACAGTC, SEQ ID NO: 49 (listed as DNA, chemistry not fully specified) | 9567 | 12082 | 7137 |
| RPS15_−_1438413.23-P1P2_00: sgRNA targeting RPS15, GACCAAAGCGATCTCTTCTG, SEQ ID NO: 60 (listed as DNA, chemistry not fully specified) | 2912 | 3376 | 6757 |
| RPS15_−_1438413.23-P1P2_01: sgRNA targeting RPS15, GACCAAACCGATCTCTTCTG, SEQ ID NO: 64 (listed as DNA, chemistry not fully specified) | 23866 | 39345 | 9713 |
| RPS15_−_1438413.23-P1P2_02: sgRNA targeting RPS15, GACCAAGGCGATCTCTTCTG, SEQ ID NO: 62 (listed as DNA, chemistry not fully specified) | 3113 | 3548 | 5051 |
| RPS15_−_1438413.23-P1P2_07: sgRNA targeting RPS15, GACCAAAGCGGTCTCTTCTG, SEQ ID NO: 61 (listed as DNA, chemistry not fully specified) | 3595 | 4631 | 6337 |
| RPS15_−_1438413.23-P1P2_12: sgRNA targeting RPS15, GACCAAAGCGATCTCTTGTG, SEQ ID NO: 63 (listed as DNA, chemistry not fully specified) | 12257 | 19991 | 4661 |
| RPS18_+_33239917.23-P1P2_00: sgRNA targeting RPS18, GCTGCGATGCCGCTGGATCA, SEQ ID NO: 40 (listed as DNA, chemistry not fully specified) | 1556 | 1535 | 6212 |
| RPS18_+_33239917.23-P1P2_01: sgRNA targeting RPS18, GCTGCAATGCCGCTGGATCA, SEQ ID NO: 41 (listed as DNA, chemistry not fully specified) | 2658 | 2571 | 5202 |
| RPS18_+_33239917.23-P1P2_02: sgRNA targeting RPS18, GCTGGGATGCCGCTGGATCA, SEQ ID NO: 42 (listed as DNA, chemistry not fully specified) | 3404 | 3757 | 5486 |
| RPS18_+_33239917.23-P1P2_04: sgRNA targeting RPS18, GCTGCGATCCCGCTGGATCA, SEQ ID NO: 44 (listed as DNA, chemistry not fully specified) | 9728 | 13186 | 5132 |
| RPS18_+_33239917.23-P1P2_08: sgRNA targeting RPS18, GCTGCGATTCCGCTGGATCA, SEQ ID NO: 43 (listed as DNA, chemistry not fully specified) | 11101 | 13839 | 8535 |
| SEC61A1_−_127771295.23-P1_00: sgRNA targeting SEC61A1, GGCACTGACGTGTCTCTCGG, SEQ ID NO: 83 (listed as DNA, chemistry not fully specified) | 2151 | 2025 | 11429 |
| SEC61A1_−_127771295.23-P1_01: sgRNA targeting SEC61A1, GGCACTGTCGTGTCTCTCGG, SEQ ID NO: 85 (listed as DNA, chemistry not fully specified) | 4006 | 4229 | 5308 |
| SEC61A1_−_127771295.23-P1_02: sgRNA targeting SEC61A1, GGCGCTGACGTGTCTCTCGG, SEQ ID NO: 84 (listed as DNA, chemistry not fully specified) | 4030 | 4238 | 9991 |
| SEC61A1_−_127771295.23-P1_03: sgRNA targeting SEC61A1, GGTACTGACGTGTCTCTCGG, SEQ ID NO: 86 (listed as DNA, chemistry not fully specified) | 3530 | 3563 | 5904 |
| SEC61A1_−_127771295.23-P1_04: sgRNA targeting SEC61A1, GGCACTGAAGTGTCTCTCGG, SEQ ID NO: 87 (listed as DNA, chemistry not fully specified) | 7999 | 10772 | 5081 |
| TUBB_+_30688126.23-P1_00: sgRNA targeting TUBB, GCGGCAGGAAGGTTCTGAGA, SEQ ID NO: 23 (listed as DNA, chemistry not fully specified) | 2722 | 1125 | 13570 |
| TUBB_+_30688126.23-P1_01: sgRNA targeting TUBB, GCAGCAGGAAGGTTCTGAGA, SEQ ID NO: 106 (listed as DNA, chemistry not fully specified) | 1319 | 962 | 7125 |
| TUBB_+_30688126.23-P1_03: sgRNA targeting TUBB, GCGGCAGCAAGGTTCTGAGA, SEQ ID NO: 108 (listed as DNA, chemistry not fully specified) | 1680 | 1221 | 4751 |
| TUBB_+_30688126.23-P1_06: sgRNA targeting TUBB, GCGGCAGGACGGTTCTGAGA, SEQ ID NO: 107 (listed as DNA, chemistry not fully specified) | 1983 | 1158 | 6235 |
| TUBB_+_30688126.23-P1_10: sgRNA targeting TUBB, GCGGCAGGAAGGTTCAGAGA, SEQ ID NO: 109 (listed as DNA, chemistry not fully specified) | 9877 | 12737 | 7085 |
